Tests used:
Format in all cases: cell-based, human
[1] = tested on: dental pulp stem cells (DPSCs); assay: Proliferation of dental pulp stem cells, cell number by the MTS method; details: for effect on proliferation of DPSCs compared with the control: 1 μM, Example 2, FIG. 5
Description: Dental pulp stem cells (DPSCs) were isolated in accordance with a method of Gronthos et al. (Proc. Natl. Acad. Sci. USA, 97: 13625-30, 2000) from a human extracted tooth that was submitted with informed consent under the permission of Okayama University Dental School Ethics Committee.
Specifically, pulp obtained from an extracted human tooth was enzyme-treated for 30 minutes at 37° C. with 3 mg/ml type 1 collagenase (Worthington Biochemicals Corp.) and 4 mg/ml dispase (Roche Diagnostic/Boehringer Mannheim Corp.), and then cultured using α-MEM culture medium containing 10% fetal bovine serum (FBS), L-ascorbic acid (0.1 mM), L-glutamine (2 mM), penicillin (100 μg/ml), and streptomycin (100 μg/ml).
Specifically, the DPSCs prepared above (1) were cultured under 5% CO2 at 37° C. in α-MEM culture medium including 10% fetal bovine serum (FBS) containing SVS at a concentration of 1 μM, L-ascorbic acid (0.1 mM), L-glutamine (2 mM), penicillin (100 μg/ml), and streptomycin (100 μg/ml). The culture medium was exchanged twice a week, and the number of cells on […] was indirectly evaluated using the MTS method (Barltrop, J. A. et al. 5-(3-carboxymethoxyphenyl)-2-(4,5-dimenthylthiazoly)-3-(4-sulfophenyl)tetrazolium, inner salt (MTS) and related analogs of 3-(4,5-dimethylthiazolyl)-2,5-diphenyl-tetrazolium bromide (MTT) reducing to purple water-soluble formazans as cell-viability indicators. Bioorg. & Med. Chem. Lett. 1, 611, 1991).
On day 0, day 3, and day 5 from the beginning of cultivation, the cell number of DPSCs was measured using the MTS method.
On day 5 from the beginning of cultivation, the cell number of DPSCs was measured using the MTS method.
Specifically, in Example 1, section (2), dental pulp stem cells (DPSCs) were cultured in the presence of each of the following: (a) simvastatin (1 μM) (simvastatin added group); (b) simvastatin (1 μM) and mevalonate (1 mM) (mevalonate added group); and (c) simvastatin (1 μM), mevalonate (1 mM) and Fasudil (10 μM) (Fasudil combined use group). On day 0, day 3, and day 5 from the beginning of cultivation, the cell number of DPSCs was measured using the MTS method.

[2] = tested on: osteocalcin (OCN) gene expression in dental pulp stem cells (DPSCs); assay: Gene expression of OCN (marker of calcification) in DPSCs by RT-PCR; details: for gene expression of OCN compared with the control and the comparison (BMP-2): 1 μM, day 14, Example 2, FIG. 6
Description: (§1) Specifically, the DPSCs prepared above (1) were cultured under a 5% CO2 gas phase at 37° C. in α-MEM culture medium including 10% fetal bovine serum (FBS) containing SVS at a concentration of 1 μM, L-ascorbic acid (0.1 mM), L-glutamine (2 mM), penicillin (100 μg/ml), and streptomycin (100 μg/ml). Total RNA was collected from cells obtained on day 3, day 7, and day 10 from the beginning of cultivation, and gene expression of dentin sialophosphoprotein (DSPP), i.e., an odontoblast-specific marker (Ritchie H H et al. J. Biol. Chem., 269:3698-702, 1994; Butler W T et al. Matrix., 12:343-51, 1992), and gene expression of osteocalcin (OCN), i.e., a marker of calcification (Bronckers A L et al. Connect Tissue Res., 22:65-70, 1989) were evaluated using qualitative RT-PCR (Narayanan K et al., J. Biol. Chem., 281(28):19064-71, 2006).
Dental pulp stem cells (DPSCs) were cultured in a manner similar to Example 1, section (3), using simvastatin (1 μM), fluvastatin (1 μM), mevastatin (1 μM), lovastatin (1 μM), and plavastatin (200 μM) respectively as HGM-CoA reductase inhibitors. Gene expression of OCN, i.e., a marker of calcification was evaluated on day 14, using qualitative RT-PCR.

[3] = tested on: dentin sialophosphoprotein (DSPP) gene expression in dental pulp stem cells (DPSCs); assay: Gene expression of DSPP (odontoblast-specific marker) in DPSCs by RT-PCR; details: SVS 1 μM, p=0.0111
Description: as §1

## CC(O)(CCO)CC(=O)O (stereo not drawn) [mevalonate]
[1]; simvastatin 1 μM + mevalonate 1 mM, day 5, FIG. 8
  effect of mevalonate supply on simvastatin-induced inhibition of DPSC proliferation: disappearance of the cell proliferation inhibiting effect

## O=S(=O)(c1cccc2cnccc12)N1CCCNCC1 [Fasudil]
[1]; Fasudil at not less than 10 μM (tested 1, 10, 100 μM), day 5, FIG. 7
  effect on proliferation of DPSCs: inhibited proliferation of DPSCs
[1]; simvastatin 1 μM + mevalonate 1 mM + Fasudil 10 μM, day 5, FIG. 8
  effect on cell proliferation of DPSCs, Fasudil combined use group: greater inhibition of cell proliferation of DPSCs than the comparison

## O=C(O)C[C@H](O)C[C@H](O)/C=C/c1c(C2CC2)nc2ccccc2c1-c1ccc(F)cc1 [pitavastatin]
[1]; day 5
  effect on proliferation of DPSCs compared with the control: inhibited proliferation of DPSCs with a significant difference

## CC(C)n1c(/C=C/C(O)CC(O)CC(=O)O)c(-c2ccc(F)cc2)c2ccccc21 (stereo not drawn) [fluvastatin]
[1]; day 5
  effect on proliferation of DPSCs compared with the control: inhibited proliferation of DPSCs with a significant difference
[2]
  gene expression of OCN compared with the control and the comparison (BMP-2): increase in gene expression of OCN

## CCC(C)(C)C(=O)O[C@H]1C[C@@H](C)C=C2C=C[C@H](C)[C@H](CC[C@@H]3C[C@@H](O)CC(=O)O3)[C@H]21 [simvastatin]
[1]; SVS 1 μM, day 5 from the beginning of cultivation, vs control (PBS), significant decrease, p<0.0001
  proliferation of dental pulp stem cells (DPSCs): 0.73 fold
[3]
  increase in gene expression of DSPP: 10.9 fold
[2]; SVS 1 μM vs BMP-2 100 ng/ml, DPSCs, p=0.0002, Scheffe's multiple comparison test
  increase in gene expression of OCN compared with the BMP-2: 7.4 fold
[2]; SVS 1 μM, DPSCs, p=0.0004, Scheffe's multiple comparison test
  increase in gene expression of OCN compared with the control: 18.8 fold

## CC[C@H](C)C(=O)O[C@H]1CCC=C2C=C[C@H](C)[C@H](CC[C@@H]3C[C@@H](O)CC(=O)O3)[C@H]21 [mevastatin]
[1]; day 5
  effect on proliferation of DPSCs compared with the control: inhibited proliferation of DPSCs with a significant difference
[2]
  gene expression of OCN compared with the control and the comparison (BMP-2): increase in gene expression of OCN

## CC[C@H](C)C(=O)O[C@H]1C[C@@H](C)C=C2C=C[C@H](C)[C@H](CC[C@@H]3C[C@@H](O)CC(=O)O3)[C@H]21 [lovastatin]
[1]; day 5
  effect on proliferation of DPSCs compared with the control: inhibited proliferation of DPSCs with a significant difference
[2]
  gene expression of OCN compared with the control and the comparison (BMP-2): increase in gene expression of OCN

B1: Noggin: a BMP inhibitor (R&D systems) (protein, UniProt Q13253 28-232, looked up)
Noggin: QHYLHIRPAPSDNLPLVDLIEHPDPIFDPKEKDLNETLLRSLLGGHYDPGFMATSPPEDRPGGGGGAAGGAEDLAELDQLLRQRPSGAMPSEIKGLEFSEGLAQGKKQRLSKKLRRKLQMWLWSQTFCPVLYAWNDLGSRFWPRYVKVGSCFSKRSCSVPEGMVCKPSKSVHLTVLRWRCQRRGGQRCGWIPIQYPIISECKCSC
[1]; day 5, Example 4, FIG. 9, statin = simvastatin 1 μM
  effect on cellular proliferation of DPSCs compared with the control: an effect on cellular proliferation of DPSCs was not observed

— patent US20100183563A1, “DENTINOGENESIS PROMOTER AND DENTINOGENIC PULP-CAPPING MATERIAL” (ORGAN TECHNOLOGIES, INC., priority 2007, published 2010)
